According to US7273604B2, “Anti-asthmatic combinations comprising surface active phospholipids” (Britannia Pharmaceuticals Limited, priority 1998, dated 2007):
Values joined by “and” are separate entries in the source; they are usually repeats but may differ in a detail not shown here. Equal values may be shown once.

Test system: bronchial epithelium
Test: Binding (adsorption) of 14C-labelled DPPC to bronchial epithelium sections, liquid scintillation counting
Design: species or system porcine
Description: • L-α-Phosphatidylcholine, 1,2-di[1-^14 C]palmitoyl in Toluene:Ethanol (1:1 v/v), 114 mCi/mmol, 50 μCi in 2 mL (CFA6O4 B36, Amersham) • L-α-Phosphatidylcholine, dipalmitoyl (C16:0) (P-6267, Sigma) • DL-α-Phosphatidyl-DL-glycerol, dipalmitoyl (C16:0) (P-5650, Sigma) • Egg Phosphatidylglycerol (Batch 24756, Macfarlan Smith, Ltd.) • Sodium Chloride, 0.9%, B.P. (Baxter Healthcare) • Calcium Chloride (C-4901, Sigma) • Toluene (T-4428, Sigma) • Ethanol, AnalaR (10107.7Y, BDH) • NCS-II Tissue Solubilizer, 0.5N Solution (NNCS-502), Amersham) • OCS Organic Counting Scintillant (NOCS104, Amersham) In preparation for the dispersions in which the epithelium would be incubated, stock solutions of the phospholipid components were prepared on the first day of Run 1. These solutions were as follows: • L-α-DPPC, 2.4 mg. mL^−1 in toluene:ethanol, 1:1 • DL-α-DPPG, 3.0 mg. mL^−1 in toluene:ethanol, 1:1 • Egg PG, 3.0 mg. mL^−1 in toluene:ethanol, 1:1 All of the above solutions were stored at 4° C. in glass vials, the threads of which were sealed with teflon tape to minimise evaporation of the solvent. Each glass vial was then placed inside a second, tightly capped glass vial. These solutions were used for each of the five runs in the trial. A solution of 200 mg. L^−1 CaCl^2 in 0.9% saline was also prepared on the first day of Run 2 and was used in each of Runs 2 to 5. […]
Four dispersions were prepared on the first day of each run. […] In addition, Group 2 received 5.5 μL (16.5 μg) DL-α-DPPG, while the same quantity of egg PG was added to Group 3. […] When the number of sections was increased, the volumes of all components were increased accordingly, keeping all quantities in the same proportions as above. […]

| Total DPPC Adsorbed to Bronchial Epithelium, Mean (mean of n 10 sections, incubation at 37° C. for 24 h in 0.9% saline dispersion, rinsed 20 times) | Structure (SMILES) | binding of DPPC to bronchial epithelium (in words) (DPPC in the presence of the named phosphatidyl glycerol, 1:1, compared with DPPC only) | Total DPPC Adsorbed to Bronchial Epithelium (individual sections, incubation at 37° C. for 24 h in 0.9% saline dispersion, rinsed 20 times) |
| --- | --- | --- | --- |
|  | CCCCCCCCCCCCCCCC(=O)OCC(COP(=O)(O)OCC(O)CO)OC(=O)CCCCCCCCCCCCCCC (racemic) [DPPG, DL-α-Phosphatidyl-DL-glycerol, dipalmitoyl (C16:0)] | increased binding of DPPC to bronchial epithelium |  |
| 0.291 μg/cm^2 | CCCCCCCCCCCCCCCC(=O)OC[C@H](COP(=O)([O-])OCC[N+](C)(C)C)OC(=O)CCCCCCCCCCCCCCC [DPPC, dipalmitoyl phosphatidyl choline] |  | 0.280 μg/cm^2 and 0.528 μg/cm^2 and 0.192 μg/cm^2 and 0.340 μg/cm^2 and 0.321 μg/cm^2 and 0.341 μg/cm^2 and 0.299 μg/cm^2 and 0.219 μg/cm^2 and 0.116 μg/cm^2 and 0.276 μg/cm^2 |
